Measured values reported in patent US20140057915A1, “KINASE INHIBITORS” (TOPIVERT PHARMA LIMITED, priority 2012, published 2014).
pEC50, pIC50: −log10 of the molar value. Like-named read-outs stand apart in the source and are kept apart here.

Assays:
BDF1 mice = experiment: TNBS-induced colitis in mice; assay type: in vivo, mouse; conditions: TNBS; 2.5 mg/kg; 2 days
Description: (C) TNBS-Induced Colitis in Mice […] On Day 0 of the study TNBS (200 μL) is administered intra-colonically via a plastic catheter followed by BID dosing of the vehicle, reference or test compound for 2 or 4 days. During the study animals are weighed every day and stool observations are made and recorded as a score, based on stool consistency. At the time of sacrifice on Day 2 (or Day 4) the large intestine is removed and the length and weight recorded. Sections of the colon are taken for either MPO analysis to determine neutrophil infiltration or for histopathology involving scoring to determine disease severity.

IL-8 release, PBMCs = experiment: LPS-induced IL-8 release in PBMC cells; assay type: cell-based; conditions: Homo sapiens, LPS stimulated, read-out: IC50 Values for Inhibition of Cytokine Release, PBMCs, IL-8
Description: (b) LPS-Induced TNFα/IL-8 Release in PBMC Cells
Peripheral blood mononuclear cells (PBMCs) from healthy subjects are separated from whole blood using a density gradient (Lymphoprep, Axis-Shield Healthcare). The PBMCs are seeded in 96 well plates and treated with compounds at the desired concentration for 2 hours before addition of 1 ng/ml LPS (Escherichia Coli 0111:B4 from Sigma Aldrich) for 24 hours under normal tissue culture conditions (37° C., 5% CO2). The supernatant is harvested for determination of […] concentrations by sandwich ELISA (Duo-set, R&D systems) and read on the fluorescence microplate reader (Varioskan® Flash, ThermoFisher Scientific).

GSK3α [1] = target: T1, GSK3α (Homo sapiens, UniProt P49840); experiment: GSK 3α enzyme inhibition (FRET), Method 2; assay type: biochemical; conditions: Table 4a2, different laboratory
T1 sequence (P49840 whole entry): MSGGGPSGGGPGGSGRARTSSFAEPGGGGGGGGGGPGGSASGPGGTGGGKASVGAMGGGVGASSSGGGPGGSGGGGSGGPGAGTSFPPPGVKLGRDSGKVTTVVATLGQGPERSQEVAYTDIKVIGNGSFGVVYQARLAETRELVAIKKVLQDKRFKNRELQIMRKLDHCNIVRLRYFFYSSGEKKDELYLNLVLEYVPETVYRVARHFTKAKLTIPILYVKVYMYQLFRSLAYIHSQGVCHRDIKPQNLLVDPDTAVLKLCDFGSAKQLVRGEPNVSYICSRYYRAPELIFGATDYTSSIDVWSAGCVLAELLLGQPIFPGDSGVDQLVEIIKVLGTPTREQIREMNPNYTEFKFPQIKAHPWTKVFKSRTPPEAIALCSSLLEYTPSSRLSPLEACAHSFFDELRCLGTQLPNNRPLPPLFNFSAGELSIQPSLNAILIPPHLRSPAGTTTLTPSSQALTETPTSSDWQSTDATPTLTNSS

IFN gamma release, PBMCs = experiment: IFN gamma release in CD3/CD28 stimulated PBMC cells; assay type: cell-based; conditions: Homo sapiens, read-out: IC50 Values for Inhibition of Cytokine Release, PBMCs, IFNγ
Description: (§1) (c) IL-2 and IFN Gamma Release in CD3/CD28 Stimulated PBMC Cells
(§2) PBMCs from healthy subjects are separated from whole blood using a density gradient (Lymphoprep, Axis-Shield Healthcare). Cells are added to a 96 well plate pre-coated with a mixture of […] monoclonal antibodies (0.3 ug/ml eBioscience and 3 ug/ml BD Pharmingen respectively). Compound at the desired concentration is then added to the wells and the plate left for 3 days under normal tissue culture conditions. Supernatants are harvested and IL-2 and IFN gamma release determined by Sandwich ELISA (Duo-set, R&D System). The IC50 is determined from the dose response curve.

cSrc = cSrc (Homo sapiens, UniProt P12931); experiment: c-Src enzyme inhibition (FRET); assay type: biochemical
Chain of cSrc (P12931 whole entry): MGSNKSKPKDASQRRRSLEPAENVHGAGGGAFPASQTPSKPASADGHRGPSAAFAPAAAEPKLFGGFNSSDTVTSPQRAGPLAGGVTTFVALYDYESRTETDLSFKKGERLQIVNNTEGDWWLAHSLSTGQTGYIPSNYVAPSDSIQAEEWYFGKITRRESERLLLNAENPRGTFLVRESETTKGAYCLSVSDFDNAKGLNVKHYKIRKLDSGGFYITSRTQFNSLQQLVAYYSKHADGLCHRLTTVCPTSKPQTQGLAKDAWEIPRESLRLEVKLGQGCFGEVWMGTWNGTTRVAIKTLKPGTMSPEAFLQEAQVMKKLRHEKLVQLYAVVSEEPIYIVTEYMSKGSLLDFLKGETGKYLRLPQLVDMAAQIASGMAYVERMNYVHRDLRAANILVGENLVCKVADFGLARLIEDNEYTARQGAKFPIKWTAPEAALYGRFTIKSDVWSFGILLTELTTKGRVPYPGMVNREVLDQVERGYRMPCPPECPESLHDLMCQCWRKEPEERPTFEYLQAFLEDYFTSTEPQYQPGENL
Procedure, shortened: (§3)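 2 hr RT enzyme + cpd (added solns 4/0.4/0.04/0.004 μg/mL); + FRET peptide (8 μM soln) + ATP soln (c-Src 800 μM, Syk 60 μM), 1 hr; protease development 1 hr; read donor/acceptor emission ratio.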

PBMC cells = experiment: Cell mitosis assay; assay type: cell-based; conditions: Homo sapiens, read-out: % Inhibition of mitosis in PBMC cells at 5 μg/mL
Description: PBMCs from healthy subjects are separated from whole blood (Quintiles, London, UK) using a density gradient (Histopaque®-1077, Sigma-Aldrich, Poole, UK). The PBMCs (3 million cells per sample) are subsequently treated with 2% PHA (Sigma-Aldrich, Poole, UK) for 48 hr, followed by a 20 hr exposure to varying concentrations of test compounds. At 2 hr before collection, PBMCs are treated with demecolcine (0.1 μg/mL; Invitrogen, Paisley, UK) to arrest cells in metaphase. […] Fluorescence is observed using an ATTUNE flow cytometer (Invitrogen, Paisley, UK), gating for lymphocytes.

IL-8 release, HT29 cells = experiment: IL-1β-induced IL-8 release in HT29 cells; assay type: cell-based; conditions: Homo sapiens, HT-29; IL-1β stimulated; read-out: IC50 Values for Inhibition of Cytokine Release, HT29 cells, IL-8
Description: (d) IL-1β-Induced IL-8 Release in HT29 Cells
HT29 cells, a human colon adenocarcinoma cell line, are plated in a 96 well plate (24 hrs) and pre-treated with compounds at the desired concentration for 2 hours before addition of 5 ng/ml of IL-1β (Abeam) for 24 hours, Supernatants are harvested for IL-8 quantification by Sandwich ELISA (Duo-set, R&D System). The IC50 is determined from the dose response curve.

IL-2 release, PBMCs = experiment: IL-2 release in CD3/CD28 stimulated PBMC cells; assay type: cell-based; conditions: Homo sapiens, read-out: IC50 Values for Inhibition of Cytokine Release, PBMCs, IL-2
Description: as §1, §2

Syk = Syk (Homo sapiens, UniProt P43405); experiment: Syk enzyme inhibition (FRET); assay type: biochemical
Procedure, shortened: as §3

[2] = test system: IL-8 release, d-U937 cells; experiment: LPS-induced IL-8 release in d-U937 cells; assay type: cell-based; conditions: Homo sapiens, dU937
Procedure, shortened: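 IL-8 release after a 4 hr challenge with LPS (0.1 μg/mL, E. coli 0111:B4) following a 2 hr compound pretreatment. Cells were human U937 monocytes differentiated to macrophage-type with PMA 100 ng/mL for 48–72 hr. Relative 50% effective concentration derived from concentration–response data.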

[3] = test system: TNFα release, d-U937 cells; experiment: LPS-induced TNFα release in d-U937 cells; assay type: cell-based; conditions: Homo sapiens, dU937
Procedure, shortened: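 U937 cells differentiated with PMA (100 ng/mL, 48–72 hr), pre-treated with compound for 2 hr, then stimulated with E. coli LPS (0.1 μg/mL) for 4 hr. Supernatant cytokine measured by sandwich ELISA; inhibition versus vehicle control, REC50 from concentration-response curve.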

[4] = target: T2, human ether a go-go (hERG) channel (Homo sapiens, UniProt Q12809); experiment: hERG inhibition (IonWorks patch clamp electrophysiology); assay type: cell-based; conditions: maximum final assay concentration 3 μM
T2 construct: a Chinese Hamster Lung cell line stably expressing the full length hERG channel
T2 sequence (Q12809 whole entry): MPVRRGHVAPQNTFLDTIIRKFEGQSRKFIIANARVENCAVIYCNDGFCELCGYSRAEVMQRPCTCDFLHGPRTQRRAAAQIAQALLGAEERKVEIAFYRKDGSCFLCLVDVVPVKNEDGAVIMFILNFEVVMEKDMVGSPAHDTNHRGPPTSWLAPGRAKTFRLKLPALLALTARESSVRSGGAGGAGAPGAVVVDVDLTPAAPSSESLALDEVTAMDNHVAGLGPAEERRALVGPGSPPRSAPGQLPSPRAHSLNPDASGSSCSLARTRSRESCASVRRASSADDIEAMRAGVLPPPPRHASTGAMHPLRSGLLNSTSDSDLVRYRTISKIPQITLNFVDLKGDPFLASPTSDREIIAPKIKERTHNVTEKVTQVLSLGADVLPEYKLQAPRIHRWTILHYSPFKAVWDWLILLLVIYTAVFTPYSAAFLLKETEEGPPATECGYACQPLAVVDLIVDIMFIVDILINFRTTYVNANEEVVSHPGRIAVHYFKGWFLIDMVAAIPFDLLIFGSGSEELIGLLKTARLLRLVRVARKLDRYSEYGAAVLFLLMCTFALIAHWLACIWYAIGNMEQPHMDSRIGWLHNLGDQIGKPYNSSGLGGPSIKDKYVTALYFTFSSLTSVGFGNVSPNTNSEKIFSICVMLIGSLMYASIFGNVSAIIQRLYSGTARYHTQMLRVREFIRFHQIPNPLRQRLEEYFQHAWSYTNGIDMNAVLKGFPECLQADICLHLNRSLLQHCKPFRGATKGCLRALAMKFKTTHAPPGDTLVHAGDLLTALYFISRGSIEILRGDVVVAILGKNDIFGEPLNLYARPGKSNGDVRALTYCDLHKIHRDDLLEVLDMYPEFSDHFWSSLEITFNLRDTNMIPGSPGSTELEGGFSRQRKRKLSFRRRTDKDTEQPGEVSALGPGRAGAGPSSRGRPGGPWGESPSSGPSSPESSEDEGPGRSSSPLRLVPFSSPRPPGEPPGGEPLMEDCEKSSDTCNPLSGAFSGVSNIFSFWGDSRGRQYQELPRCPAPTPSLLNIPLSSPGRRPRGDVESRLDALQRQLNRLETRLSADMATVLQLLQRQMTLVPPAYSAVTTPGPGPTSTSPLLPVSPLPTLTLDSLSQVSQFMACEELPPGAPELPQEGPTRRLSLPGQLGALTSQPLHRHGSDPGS
Description: Eight-point concentration curves were generated using serial 3-fold dilutions from the maximum final assay concentration (3 μM). Electrophysiological recordings were made from a Chinese Hamster Lung cell line stably expressing the full length hERG channel. Single cell ionic currents were measured in the perforated patch clamp configuration (100 μg/mL) amphotericin) at room temperature (21-23° C.) using an IonWorks Quattro instrument. The internal solution contained (mM): 140 KCl, 1 MgCl2, 1 EGTA, 20 HEPES and was buffered to pH 7.3. The external solution contained (mM):138 NaCl, 2.7 KCl, 0.9 CaCl2, 0.5 MgCl2, 8 Na2HPO4, 1.5 KH2PO4, also buffered to pH 7.3. Cells were clamped at a holding potential of −70 mV for 30 s and then stepped to +40 mV for 1 s. This was followed by a hyperpolarising step of 1s to −30 mV to evoke the hERG tail current. This sequence was repeated 5 times at a frequency of 0.25 Hz. Currents were measured from the tail step at the 5th pulse, and referenced to the holding current. Compounds were then incubated for 6-7 minutes prior to a second measurement of the hERG signal using an identical pulse train. Eight-point concentration curves were generated using serial 3-fold dilutions from the maximum final assay concentration (3 μM).

HRV16 in MRC5 cells = experiment: HRV16 induced CPE in MRC5 cells; assay type: cell-based; conditions: Human rhinovirus sp., HRV-16
Description: (j) Assessment of HRV16 Induced CPE in MRC5 Cells
MRC-5 cells are infected with HRV16 at an MOI of 1n DMEM containing 5% FCS and 1.5 mM magnesium chloride, followed by incubation for 1 hr at 33° C. to promote adsorption. The supernatants are aspirated, and then fresh media added followed by incubation for 4 days. Where appropriate, cells are pre-incubated with compound or DMSO for 2 hr, and the compounds and DMSO added again after washout of the virus.
After washing, 1% SDS in distilled water (100 μL) is added to each well, and the plates are shaken lightly for 1-2 hr prior to reading the absorbance at 660 nm. The percentage inhibition for each well is calculated. The IC50 value is calculated from the concentration-response curve generated by the serial dilutions of the test compounds.

GSK3α [5] = target: T1, GSK3α; experiment: GSK 3α enzyme inhibition (FRET), Method 1; assay type: biochemical; conditions: Table 4a1
Procedure, shortened: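 Compounds are tested at added-solution levels of 4, 0.4, 0.04 or 0.004 μg/mL against GSK3α, with a 2 hr RT preincubation. Kinase reaction with FRET peptide and ATP (8 μM and 40 μM as added) runs 1 hr, and phosphorylation is judged by the protease-sensitive FRET ratio.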

[6] = test system: ICAM-1 expression, BEAS2B cells; experiment: Poly I:C-induced ICAM-1 expression in BEAS2B cells; assay type: cell-based; conditions: Homo sapiens, BEAS-2B; read-out: Poly IC induced ICAM1 in BEAS2B, IC50
Procedure, shortened: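 BEAS2B human bronchial epithelial cells pre-incubated 2 h with compound, then transfected with poly I:C (1 μg/mL) plus Oligofectamine. After 18 h, cell-surface ICAM-1 read by cell-based ELISA (A450–655), normalised to Crystal Violet cell number (A595); inhibition calculated against vehicle control at each concentration.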

d-U937 cells = experiment: Cell viability: MTT assay; assay type: cell-based, human; conditions: 1 μg/mL
Procedure, shortened: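 Differentiated U937 cells exposed to compound at 1 or 10 μg/mL, either 4 h in 5% FCS or 24 h in 10% FCS RPMI1640. MTT then added for 1 h, formazan dissolved in DMSO and read at 550 nm. Viability loss given as % versus 0.5% DMSO vehicle; apparent gains appear negative.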

[7] = Table 4a2, different laboratory

Row | pIC50 (GSK3α [1]) | pIC50 (cSrc; [7]) | pIC50 (IL-8 release, HT29 cells) | pIC50 (Syk; [7]) | SMILES | pIC50 (IL-8 release, PBMCs) | pIC50 (IFN gamma release, PBMCs) | inhibition at 5 µg/mL (PBMC cells) | pIC50 (IL-2 release, PBMCs) | other results
1 | 5.75 | 7.35 | 8.52 | 7.47 | C#Cc1cc(Nc2nccc(Oc3ccc(NC(=O)Nc4cc(C(C)(C)C(F)(F)F)nn4-c4ccc(C)cc4)c4ccccc34)n2)cc(C(=O)NCCN2CCOCC2)c1 [Example 76, 3-Ethynyl-N-(2-morpholinoethyl)-5-((4-((4-(3-(1-(p-tolyl)-3-(1,1,1-trifluoro-2-methylpropan-2-yl)-1H-pyrazol-5-yl)ureido)naphthalen-1-yl)oxy)pyrimidin-2-yl)amino)-benzamide] | 8.68 | 8.74 | 23% | 6.73 | –
2 | 5.86 | 7.96 | 8.89 | 7.55 | C#Cc1cc(Nc2nccc(Oc3ccc(NC(=O)Nc4cc(C(C)(C)C)nn4-c4ccc(C)cc4)c4ccccc34)n2)cc(C(=O)NCCN2CCOCC2)c1 [Example 75, 3-((4-((4-(3-(3-(tert-Butyl)-1-(p-tolyl)-1H-pyrazol-5-yl)ureido)naphthalen-1-yl)oxy)pyrimidin-2-yl)amino)-5-ethynyl-N-(2-morpholinoethyl)benzamide] | 9.00 | 8.52 | 2.8% | 7.11 | pIC50 ([2]; Table 4c2, different laboratory, read-out: IC50 Values for Inhibition of Cytokine Release, dU937 cells, IL-8): 9.52; pIC50 ([3]; Table 4c2, different laboratory, read-out: IC50 Values for Inhibition of Cytokine Release, dU937 cells, TNFα): 9.40; pIC50 [4]: < 5.52
3 | 4.93 | 7.59 | 8.28 | 7.23 | C#Cc1cc(Nc2nccc(Oc3ccc(NC(=O)Nc4cc(C(C)(C)C)nn4-c4ccc(C)cc4)c4ccccc34)n2)cc(C(=O)N[C@H](C)CN2CCOCC2)c1 [Example 83, (R)-3-((4-((4-(3-(3-(tert-Butyl)-1-(p-tolyl)-1H-pyrazol-5-yl)ureido)naphthalen-1-yl)oxy)pyrimidin-2-yl)amino)-5-ethynyl-N-(1-morpholinopropan-2-yl)benzamide] | 8.42 | 8.74 | 20.9% | 6.91 | –

The next lines start with the compound.

Row | SMILES | pIC50 (GSK3α [1]) | pIC50 (cSrc; [7]) | pIC50 (IL-8 release, HT29 cells) | pIC50 (Syk; [7]) | pIC50 (IL-8 release, PBMCs) | pIC50 (IFN gamma release, PBMCs) | inhibition at 5 µg/mL (PBMC cells) | pIC50 (IL-2 release, PBMCs) | other results
4 | CCCC1O[C@@H]2C[C@H]3[C@@H]4CCC5=CC(=O)C=C[C@]5(C)[C@H]4[C@@H](O)C[C@]3(C)[C@]2(C(=O)CO)O1 (some centres unmarked) [Budesonide, reference compound] | – | – | – | – | – | – | – | – | LP inflammation (BDF1 mice): 2.5 ± 0.4; Ulcer grade (BDF1 mice): 2.9 ± 0.6
5 | Cc1ccc(-n2nc(C(C)(C)C)cc2NC(=O)Nc2ccc(Oc3ccnc(Nc4cc(C)cc(C(N)=O)c4)n3)c3ccccc23)cc1 [Example 40, 3-((4-((4-(3-(3-(tert-butyl)-1-(p-tolyl)-1H-pyrazol-5-yl)ureido)naphthalen-1-yl)oxy)pyrimidin-2-yl)amino)-5-methylbenzamide] | – | – | – | – | – | – | – | – | pIC50 (HRV16 in MRC5 cells): 8.54; pIC50 (GSK3α [5]): 5.87; pIC50 (cSrc; Table 4a1): 8.52; pIC50 ([2]; Table 4c1, read-out: LPS Induced Release of Cytokine in d-U937 Cells, IL-8 IC50): 8.66; pEC50 ([3]; relative to 10 μg/mL BIRB796, Table 4c1, read-out: LPS Induced Release of Cytokine in d-U937 Cells, TNFα REC50): 9.70; pIC50 [6]: 9.15; Cell viability at time point in d-U937 cells, 4 h (d-U937 cells; 4 h): −ve (−ve and +ve indicate that the value is below and above respectively, the no significant effect threshold, defined as 30% inhibition at 1 μg/mL at the time point indicated); Cell viability at time point in d-U937 cells, 24 h (d-U937 cells; 24 h): −ve (−ve and +ve indicate that the value is below and above respectively, the no significant effect threshold, defined as 30% inhibition at 1 μg/mL at the time point indicated); pIC50 (Syk; Table 4a1): 8.05
